Test results as given in ChEMBL document CHEMBL3045784, “Effects of oleic acid on the tissue factor activity, blood lipids, antioxidant and oxidant parameters of streptozotocin induced diabetic rats fed a high-cholesterol diet” (Med Chem Res, 2010).

Legend:
[1] = tested on: Rattus norvegicus; assay: Antihyperlipidemic activity in Rattus norvegicus Wistar (rat) diabetic-hyperlipidemic model assessed as serum triglyceride level at 10.91% administered through feeding measured after 12 weeks ( Rvb = 86.45 +/- 5.7 mg/dl); format: functional
[2] = tested on: Rattus norvegicus; assay: Antidiabetic activity in Rattus norvegicus Wistar (rat) diabetic-hyperlipidemic model assessed as serum glucose level at 10.91% administered through feeding measured after 12 weeks ( Rvb = 194.4 +/- 23.99 mg/dl); format: functional
[3] = tested on: Rattus norvegicus; assay: Anticoagulant activity in Rattus norvegicus Wistar (rat) diabetic-hyperlipidemic model assessed as fibrinogen level at 10.91% administered through feeding measured after 12 weeks (reference value: 2.13 +/- 0.23 g/l); format: functional
[4] = tested on: Rattus norvegicus; assay: Antihyperlipidemic activity in Rattus norvegicus Wistar (rat) diabetic-hyperlipidemic model assessed as serum HDL-cholesterol level at 10.91% administered through feeding measured after 12 weeks ( Rvb = 22.80 +/- 2.41 mg/dl); format: functional
[5] = tested on: Rattus norvegicus; assay: Anticoagulant activity in Rattus norvegicus Wistar (rat) diabetic-hyperlipidemic model assessed as decrease in TFa activity in pancreas measuring clotting time at 10.91% administered through feeding measured after 12 weeks (reference value: 27.25 +/- 2.82 secs); format: functional
[6] = tested on: Rattus norvegicus; assay: Anticoagulant activity in Rattus norvegicus Wistar (rat) diabetic-hyperlipidemic model assessed as decrease in TFa activity in heart measuring clotting time at 10.91% administered through feeding measured after 12 weeks (reference value: 27.13 +/- 3.72 secs); format: functional
[7] = tested on: Rattus norvegicus; assay: Anticoagulant activity in Rattus norvegicus Wistar (rat) diabetic-hyperlipidemic model assessed as decrease in TFa activity in kidney measuring clotting time at 10.91% administered through feeding measured after 12 weeks (reference value: 52.38 +/- 2 secs); format: functional
[8] = tested on: Rattus norvegicus; assay: Antihyperlipidemic activity in Rattus norvegicus Wistar (rat) diabetic-hyperlipidemic model assessed as serum total cholesterol level at 10.91% administered through feeding measured after 12 weeks ( Rvb = 309 +/- 35.88 mg/dl); format: functional
[9] = tested on: Rattus norvegicus; assay: Anticoagulant activity in Rattus norvegicus Wistar (rat) diabetic-hyperlipidemic model assessed as prothombin time at 10.91% administered through feeding measured after 12 weeks (reference value: 14.69 +/- 0.8 secs); format: functional
[10] = tested on: Rattus norvegicus; assay: Anticoagulant activity in Rattus norvegicus Wistar (rat) diabetic-hyperlipidemic model assessed as decrease in TFa activity in liver measuring clotting time at 10.91% administered through feeding measured after 12 weeks (reference value: 74.38 +/- 4.60 secs); format: functional
[11] = tested on: Rattus norvegicus; assay: Toxicity in Rattus norvegicus Wistar (rat) diabetic-hyperlipidemic model assessed as change in body weight at 10.91% administered through feeding measured for 12 weeks ( Rvb = 290 +/-76 g); format: organism-based; details: in vivo, po, 2016 h
[12] = tested on: Rattus norvegicus; assay: Antihyperlipidemic activity in Rattus norvegicus Wistar (rat) diabetic-hyperlipidemic model assessed as serum total lipid level at 10.91% administered through feeding measured after 12 weeks ( Rvb = 922.25 +/- 41.78 mg/dl); format: functional
[13] = tested on: Rattus norvegicus; assay: Anticoagulant activity in Rattus norvegicus Wistar (rat) diabetic-hyperlipidemic model assessed as decrease in TFa activity in spleen measuring clotting time at 10.91% administered through feeding measured after 12 weeks (reference value: 69.63 +/- 1.77 secs); format: functional
[14] = tested on: Rattus norvegicus; assay: Anticoagulant activity in Rattus norvegicus Wistar (rat) diabetic-hyperlipidemic model assessed as decrease in TFa activity in aorta measuring clotting time at 10.91% administered through feeding measured after 12 weeks (reference value: 36.25 +/- 1.39 secs); format: functional
[15] = tested on: Rattus norvegicus; assay: Increase in blood GSH level in Rattus norvegicus Wistar (rat) diabetic-hyperlipidemic model at 10.91% administered through feeding measured after 12 weeks (reference value: 20.31 +/- 0.93 %mg); format: functional
[16] = tested on: Rattus norvegicus; assay: Anticoagulant activity in Rattus norvegicus Wistar (rat) diabetic-hyperlipidemic model assessed as decrease in TFa activity in brain measuring clotting time at 10.91% administered through feeding measured after 12 weeks (reference value: 50.5 +/- 1.77 secs); format: functional
[17] = tested on: Rattus norvegicus; assay: Anticoagulant activity in Rattus norvegicus Wistar (rat) diabetic-hyperlipidemic model assessed as decrease in TFa activity in lung measuring clotting time at 10.91% administered through feeding measured after 12 weeks (reference value: 19.25 +/- 3.20 secs); format: functional
[18] = tested on: Rattus norvegicus; assay: Anticoagulant activity in Rattus norvegicus Wistar (rat) diabetic-hyperlipidemic model assessed as activated partial thromboplastin time at 10.91% administered through feeding measured after 12 weeks (reference value: 17.13 +/- 1.73 secs); format: functional
[19] = tested on: Rattus norvegicus; assay: Antioxidant activity in Rattus norvegicus Wistar (rat) diabetic-hyperlipidemic model assessed as serum malondialdehyde level at 10.91% administered through feeding measured after 12 weeks by TBARS assay (reference value: 5.78 +/- 0.08 nmol/ml); format: functional
[20] = tested on: Rattus norvegicus; assay: Antihyperlipidemic activity in Rattus norvegicus Wistar (rat) diabetic-hyperlipidemic model assessed as serum LDL-cholesterol level at 10.91% administered through feeding measured after 12 weeks ( Rvb = 74.25 +/- 9.36 mg/dl); format: functional

With CCCCCCCC/C=C\CCCCCCCC(=O)O [OLEIC ACID] the Activity [1] was 71.68 mg/dL, the Activity [2] was 190.63 mg/dL and the Activity [3] was 1.97 g/L. The Activity [4] was 25.53 mg/dL, the Time [5] was 28.5 s and the Time [6] was 28.25 s. It also gave a Time [7] of 65.13 s, an Activity [8] of 351.3 mg/dL and a PT [9] of 15.1 s. The Time [10] was 77.25 s, the Activity [11] was 243 g and the Activity [12] was 773.75 mg/dL. It also gave a Time [13] of 62.25 s, a Time [14] of 33.5 s and an Activity [15] of 29.96 %mg. The Time [16] was 60.13 s, the Time [17] was 20.38 s and the APTT [18] was 17.88 s. It also gave an Activity [19] of 5.81 nmol/mL and an Activity [20] of 74.63 mg/dL.
